{
  "source": "patent US20060128744A1",
  "about": "“Use of 5-HT6 agonist for the treatment and prevention of neurodegenerative disorders” (Wyeth, priority 2004, published 2006)",
  "key": {"[1]": {"tested_on": "cerebellar granule neurons", "test": "Potassium withdrawal-induced apoptosis in cerebellar granule neurons, DNA fragmentation ELISA", "assay_type": "cell-based, rat", "conditions": "5 mM K+, 24 h", "procedure": "(§1) Cerebella isolated from P7 rat pup brains are cut into 1 mm pieces and transferred to a tube containing 0.3 mg/ml trypsin in HBSS. Following enzymatic digestion, the tissue is mechanically triturated. The supernatant is collected and centrifuged at 1200 rpm for 10 minutes. The resultant pellet is resuspended in complete media (Neurobasal, […], 0.5 mM L-glutamine, 100 U/ml penicillin, 100 μg/ml streptomycin, 10% FBS) and plated at a density of 0.5×10^6 cells/well in 24-well plates. After 24 h, media is exchanged with complete serum-free medial (Neurobasal, […], 0.5 mM L-glutamine, 100 U/ml penicillin, 100 μg/ml streptomycin, B-27 supplement).\nPotassium withdrawal, i.e. replacement of […] in the CGN culture medium is a well established model of neuronal cell death by apoptosis (T. M. Miller and E. M. Johnson, Journal of Neuroscience, (1996) 16(23), pp7487-7495). Cultures are maintained for 7 days prior to experimentation. Complete media containing 25 mM K^+ is exchanged with complete media containing 5 mM K^+. […] After 24 h, apoptotic cell death is determined by measuring DNA fragmentation via ELISA. Apoptotic cell death is expressed as % apoptosis."}, "[2]": {"tested_on": "cerebellar granule neurons", "test": "Oxygen glucose deprivation (OGD) in cerebellar granule neurons, LDH release", "assay_type": "cell-based, rat", "conditions": "4 h OGD, 24 h recovery", "procedure": "as §1\nThis is a well characterized model of ischemia-like neuronal injury involving glutamate-induced excitotoxicity (A. Kaasik, et al, Neuroscience (2001) 102, pp427-432). Cultures are maintained for 14 days in vitro prior to experimentation. […] Following the 4 h OGD, deoxygenated buffer is exchanged with complete media. […] At the end of the 24-h period, cell death is determined by measuring lactate dehydrogenase (LDH) released into the media and is expressed as a percent of cell death. The results are shown in FIG. 3 and are presented as means±SD from 5 experiments. Sham bar represents results obtained with cultures subjected to manipulations and changes of culture media without OGD or drug treatment."}, "[3]": {"biological_target": "T1, human cloned 5-HT6 receptors (Homo sapiens, UniProt P50406)", "T1 construct": "expressed in transfected cells; host or cells: HeLa cells (membrane preparation)", "T1 sequence (P50406 whole entry)": "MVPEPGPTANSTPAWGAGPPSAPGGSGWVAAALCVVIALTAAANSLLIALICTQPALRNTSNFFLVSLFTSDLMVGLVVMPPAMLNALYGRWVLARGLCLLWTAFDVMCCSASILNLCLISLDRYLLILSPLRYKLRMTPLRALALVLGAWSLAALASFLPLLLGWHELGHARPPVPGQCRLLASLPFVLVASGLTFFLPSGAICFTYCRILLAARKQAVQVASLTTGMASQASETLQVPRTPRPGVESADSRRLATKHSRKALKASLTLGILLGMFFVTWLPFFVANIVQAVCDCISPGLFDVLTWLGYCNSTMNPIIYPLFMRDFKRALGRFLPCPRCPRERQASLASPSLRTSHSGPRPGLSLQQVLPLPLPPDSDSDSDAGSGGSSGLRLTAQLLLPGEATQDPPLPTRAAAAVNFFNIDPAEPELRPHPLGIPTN", "test": "5-HT6 binding affinity, [3H]-LSD displacement in membranes of Hela cells", "procedure": "The affinity of test compounds for the serotonin 5-HT6 receptor is evaluated in the following manner. Cultured Hela cells expressing human cloned 5-HT6 receptors are harvested and centrifuged at low speed (1,000×g) for 10.0 min to remove the culture media. The harvested cells are suspended in half volume of fresh physiological phosphate buffered saline solution and recentrifuged at the same speed. This operation is repeated. The collected cells are then homogenized in ten volumes of 50 mM Tris.HCl (pH 7.4) and 0.5 mM EDTA. The homogenate is centrifuged at 40,000×g for 30.0 min and the precipitate is collected. The obtained pellet is resuspended in 10 volumes of Tris.HCl buffer and recentrifuged at the same speed. The final pellet is suspended in a small volume of Tris.HCl buffer and the tissue protein content is determined in aliquots of 10-25 μl volumes. […] The volume of the suspended cell membranes is adjusted to give a tissue protein concentration of 1.0 mg/ml of suspension. […]\nThe bound complex caught on the filter disk is allowed to air dry and the radioactivity is measured in a Packard TopCount® equipped with six photomultiplier detectors, after the addition of 40.0 μl Microscint®-20 scintillant to each shallow well.\nBinding in the presence of varying concentrations of test compound is expressed as a percentage of specific binding in the absence of test compound. […]"}, "[4]": {"biological_target": "T2, human 5-HT6 receptor stabily transfected into HELA cells (Homo sapiens, UniProt P50406)", "T2 construct": "expressed in transfected cells; host or cells: HeLa cells, stably transfected", "T2 sequence (P50406 whole entry)": "as above", "test": "5-HT6 agonist activity using cAMP accumulation", "assay_type": "cell-based", "procedure": "Upon initiation of the assay, the media from cell maintenance is aspirated and cells are preincubated at 37° C. for 15 mins. in KREBS buffer. Following this primary incubation, the buffer is aspirated and an additional incubation is performed at 37° C. for 5 mins. in KREBS buffer containing 500 uM IBMX (3-isobutyl-1-methylxanthine). […] The assay is terminated by the addition of 0.5M perchloric acid. […] Data are analyzed graphically with GraphPad Prism (GraphPad Software, San Diego, Calif.)."}, "[5]": {"tested_on": "neuron cultures from E16 rat embryos", "conditions": "72 h", "procedure": "In this evaluation neuron cultures are prepared from E16 rat embryos. […] After a 72 h period, neuronal survival is determined by a neurofilament ELISA.\nThe data are expressed as total neurofilament content."}, "[6]": {"tested_on": "brain derived neurotrophic factor (BDNF) protein in cortical neuron cultures", "test": "BDNF protein levels in cultured cortical neurons, sandwich ELISA", "assay_type": "cell-based, rat", "conditions": "72 h in culture", "procedure": "In this evaluation cortical neuron cultures are prepared from E16 rat embryos and plated on pre-coated 10 cm Petri dishes. […] Levels of brain derived neurotrophic factor (BDNF) protein were measured after a 72 h period by lysing the cells and using a BDNF sandwich ELISA. More specifically, ELISA plates were coated with an anti-BDNF monoclonal antibody. Nonspecific binding was blocked and 50 μg of sample protein was added. A second anti-BDNF antibody was added and incubated. An anti-IgY antibody conjugated with horseradish peroxidase was added and incubated. A TMB solution was added and the colorimetric reaction was measured in a plate reader (absorbance of 450 nm). BDNF levels are quantified after 72 h in culture."}, "[7]": {"tested_on": "cortical neuron cultures from E16 rat embryos", "conditions": "72 h", "procedure": "In this evaluation cortical neuron cultures are prepared from E16 rat embryos. […] Neurite outgrowth is determined after a 72 h period by staining cells with a tubulin antibody (TUJ-1) and measuring neurite length with the Cellomics ArrayScan, using the Enhanced Neurite Outgrowth (ENO) algorithm. The data are expressed as total neurite length."}},
  "note": "pKi: −log10 of the molar value.",
  "data": [
    {"smiles": "NCCc1cn(S(=O)(=O)c2c(Cl)nc3sccn23)c2ccccc12", "note": "[Test Compound C]", "values": [
      {"measurement": "reduction of apoptotic cell death", "setting": "[1]; 0.3 μM", "result": 50, "unit": "%"},
      {"measurement": "protection from apoptosis", "setting": "[1]; 3.0 μM", "result": "almost total protection from apoptosis"},
      {"measurement": "effect on amount of fragmented DNA (measure of apoptosis)", "setting": "[1]", "result": "significantly, and dose dependently, attenuated"},
      {"measurement": "reduction of neuronal death", "setting": "[2]; 1 μM", "result": 50, "unit": "%"},
      {"measurement": "effect on OGD-induced neuronal cell death", "setting": "[2]; 1 h pretreatment", "result": "dose-dependent reduction of neuronal cell death"},
      {"measurement": "lowest concentration providing significant protection against OGD-induced cell death", "setting": "[2]; LDH release", "result": 10, "unit": "nM"}
    ]},
    {"smiles": "COc1ccc(OC)c(S(=O)(=O)c2cn(CCN)c3ncccc23)c1", "note": "[Test Compound A, (2-{3-[(2,5-dimethoxyphenyl)sulfonyl]-1H-pyrrolo[2,3-b]pyridin-1-yl}ethyl)amine]", "values": [
      {"measurement": "pKi", "setting": "[3]", "result": 8.44},
      {"measurement": "Emax", "setting": "[4]", "result": 95, "unit": "%"}
    ]},
    {"smiles": "CN(C)CCn1cc(S(=O)(=O)c2cccc(F)c2)c2cccnc21", "note": "[Test Compound B, N-(2-{3-[(3-fluorophenyl)sulfonyl]-1H-pyrrolo[2,3-b]pyridin-1-yl}ethyl)-N,N-dimethylamine]", "values": [
      {"measurement": "neurofilament content compared to vehicle treated controls", "setting": "[5]", "result": "increases the neurofilament content"},
      {"measurement": "BDNF protein levels compared to vehicle treated control", "setting": "[6]", "result": "significantly increased BDNF protein levels"},
      {"measurement": "total neurite length compared to vehicle treated controls", "setting": "[7]", "result": "increased total neurite length"}
    ]}
  ]
}
